Test results: patent US20190017060A1, “MANIPULATION OF PROANTHOCYANIDIN (PA) COMPOSITION BY AFFECTING ANTHOCYANIDIN SYNTHASE (ANS) AND LEUCOANTHOCYANIDIN DIOXYGENASE (LDOX)” (University of North Texas, priority 2017, published 2019)

What was measured:
Format in all cases: biochemical, Medicago truncatula
ANS = assay: Enzyme assay with recombinant ANS protein, HPLC detection of cyanidin; settings: 50 μg recombinant protein, 1 h at 30° C., HPLC at 530 nm; flavan-3-ols at 200 μM
Procedure: (§1) The full length ANS and LDOX cDNAs were cloned into pMal-c5x vector (New England Biolabs) at the SalI and BamHI site and BamHI and EcoRI site, respectively. The expression constructs were transformed into E. coli strain NEB® Express Competent E. coli (New England Biolabs). Transformed bacteria were grown in LB medium supplemented with 0.2% glucose to OD 600 of 0.5, and IPTG was added at 0.3 mM to induce protein expression. Bacteria were harvested after 4 h induction. ANS and LDOX proteins were purified with amylose resin (NEB, E8021) following the manufacturer's protocol. Briefly, bacteria were lysed by sonication at 4° C. in extraction buffer (20 mM Tris pH 7.0, 200 mM NaCl, 1 mM DTT). The bacterial lysates were centrifuged at 12,000 g for 15 min at 4° C. The supernatants were loaded on amylose resin which was washed with wash buffer (extraction buffer). Finally, proteins were eluted by elution buffer (20 mM Tris pH 7.0, 200 mM NaCl, 1 mM DTT, 10 mM maltose). Purified proteins were concentrated with an Amicon® Ultra-4 Centrifugal Filter (Millipore) and aliquoted to store at −80° C.
(§2) It was previously reported that ANS can convert leucocyanidin to cyanidin. To confirm this, separate enzyme reactions were set up for ANS and LDOX by incubating with leucocyanidin according to Tanner et al. The enzyme reaction was prepared in 100 μL volume including 20 mM potassium phosphate buffer (pH 7.0), 1 mM 2-oxoglutarate, 0.4 mM ammonium iron(II) sulfate, 4 mM sodium ascorbate, 100 mM NaCl, 10 mM maltose, 5 mM DTT and 50 μg recombinant proteins. The reactions were carried out for 1 h at 30° C. and terminated by addition of 1 μL 36% HCl and 10 μL 100% methanol. The reaction mixture was centrifuged for 5 min at 13,000 rpm at 4° C. and analyzed by HPLC. All reverse-phase HPLC analyses were performed on an Agilent HP1100 HPLC using the following gradient: solvent A (1% phosphoric acid) and B (acetonitrile) at 1 ml/min flow rate: 0-5 min, 5% B; 5-10 min, 5-10% B; 10-25 min, 10-17% B; 25-30 min, 17-23% B; 30-65 min, 23-50% B; 65-79 min, 50-100% B; 79-80 min, 100-5% B. Data were collected at 280 and 530 nm for flavonoids and anthocyanidins, respectively. Identifications were based on chromatographic behavior and UV spectra compared with those of authentic standards.
(§3) Since catechin was highly accumulated in the ldox mutant, it was tested whether ANS or LDOX protein can react with (+)-catechin (2R, 3S), which is stated as a naturally synthesized monomeric unit of PAs. The same enzyme reaction was set up but using 200 μM of (+)-catechin as substrate instead of leucocyanidin. Reactions without 2-oxoglutarate (-oxo) were run as negative controls. […] The enzyme reaction was performed with (+)-catechin as substrate and recombinant ANS or LDOX protein. Arrowhead indicates the peak for cyanidin (Cy) standard. Reactions without 2-oxoglutarate were run as negative controls and are denoted as -oxo. […] The enzyme assay was performed with (−)-catechin, (−)-epicatechin or (+)-epicatechin as substrate and purified recombinant ANS or LDOX protein. The substrate in each reaction is indicated. (−)-cat, (−)-catechin; (−)-epi, (−)-epicatechin; (+)-epi, (+)-epicatechin. […] The gray arrow denotes the catalyzed reaction in vitro. The proteins used are indicated in each chromatogram.

LDOX = assay: Enzyme assay with recombinant LDOX protein, HPLC detection of cyanidin; settings: 50 μg recombinant protein, 1 h at 30° C., HPLC at 530 nm; flavan-3-ols at 200 μM
Procedure: as §1, §2, §3

ANS and ANR proteins = assay: Combined enzyme reaction of ANS with ANR; settings: 200 μM substrate, 10 mM NADPH, 50 μg ANS and ANR proteins, HPLC at 280 nm
Procedure: as §2
(§4) Next, the combined reaction of ANS or LDOX with ANR was tested to check if (+)-catechin can be converted to (−)-epicatechin, which is the almost exclusive monomer unit of PA polymers in Medicago truncatula. […]

LDOX and ANR proteins = assay: Combined enzyme reaction of LDOX with ANR; settings: 200 μM substrate, 10 mM NADPH, 50 μg LDOX and ANR proteins, HPLC at 280 nm
Procedure: as §2, §4

Row | Molecule | in vitro conversion of substrate to cyanidin by ANS (ANS) | in vitro conversion of substrate to cyanidin by LDOX (LDOX) | (+)-catechin converted to epicatechin (ANS and ANR proteins) | (+)-catechin converted to epicatechin (LDOX and ANR proteins)
1 | Oc1cc(O)c2c(c1)O[C@H](c1ccc(O)c(O)c1)[C@@H](O)C2 [(+)-catechin] | catalyze the in vitro conversion of (+)-catechin to cyanidin | catalyze the in vitro conversion of (+)-catechin to cyanidin | more than 70% | more than 70%
2 | Oc1cc(O)c2c(c1)O[C@@H](c1ccc(O)c(O)c1)[C@@H](O)C2 [(+)-epicatechin] | No cyanidin generation was detected | No cyanidin generation was detected |  | 
3 | Oc1cc(O)c2c(c1)O[C@H](c1ccc(O)c(O)c1)[C@H](O)C2 [(−)-epicatechin] | No cyanidin generation was detected | No cyanidin generation was detected |  | 
4 | Oc1cc(O)c2c(c1)OC(c1ccc(O)c(O)c1)C(O)C2O (stereo not drawn) [leucocyanidin] | catalyzed in vitro conversion of leucocyanidin to cyanidin | catalyzed in vitro conversion of leucocyanidin to cyanidin |  | 
5 | (−)-catechin | No cyanidin generation was detected | No cyanidin generation was detected |  | 
